A melting point compilation (Tetko et al.; mined from patent text by program, amines drawn as free bases though some values may be those of a salt)

| Structure (SMILES) | melting point |
| --- | --- |
| CN(C)c1nc2c(c(N3CCN(Cc4ccccc4)CC3)n1)SCCC2 | 106 to 108 °C |
| CCOC(=O)c1c(C)ccnc1Sc1nc(C)c(CC(=O)O)s1 | 164 to 166 °C |
| NC(=O)[C@@H](N)CN(c1ccccc1)c1ncccn1 | 139 °C |
| Nc1ncc2c(n1)CCC(CNC(=O)[C@@H]1CCCN1C(=O)[C@@H](CC1CCCCC1)NS(=O)(=O)Cc1ccccc1)C2 (some centres not stated) | 118 to 121 °C |
| COc1ccc(C(=O)Nc2c(Cl)cncc2Cl)c2c3cc(Cl)ccc3n(Cc3ccccc3)c12 | 210 to 213 °C |
| COC(=O)c1[nH]c(=O)[nH]c(=O)c1[N+](=O)[O-] | 229 to 230 °C |
| Cc1nc2cc(C(=O)NC(C)C)c(NC(=O)c3cc(C(F)(F)F)nn3-c3ncccc3Cl)c(Cl)c2n1C | 248 to 250 °C |
| C#CCNC(=O)c1cc(C(=O)OC)c(O)c2ncc(Cc3ccc(F)cc3)cc12 | 192 to 193 °C |
| CN(C)C=Nc1nc(=O)n(C(=O)OCC(C)(C)C)cc1F | 162 to 164 °C |
| COC(=O)c1cc(C(C)=O)c(OCc2ccccc2)cc1OCc1ccccc1 | 114 to 115 °C |
| CCOc1cc(-c2ccc(-c3ccc(N=Nc4ccccn4)c(OCC)c3)o2)ccc1N=Nc1ccccn1 | 205 to 210 °C |
| S=C=NCCCN1CCC(c2ccccc2)CC1 | 50 to 55 °C |
| Cn1nc(OCCCc2cc(-c3ccc(C(F)(F)F)cc3)no2)cc1C(=O)O | 162 to 163 °C |
| Cc1n[nH]c2c(C(=O)NC3(C4CC4)CC3)c(NC(=O)c3cc(C(F)(F)F)nn3-c3ncccc3Cl)c(Cl)cc12 | 228 to 229 °C |
| N#Cc1nc2cccc(O)c2s1 | 225 °C |
| COc1ccc(F)cc1C(C)(C)CC(C)(O)Cc1cc2ccccc2[nH]1 (configuration not stated) | 118 to 120 °C |
| CCCc1ccc(-c2ccc(-c3ccc(CC)cc3)cc2F)s1 | 41 °C |
| CN(C)C(=O)N1N=C2c3cc(F)ccc3OC[C@@H]2[C@@H]1c1ccccc1 (racemic) | 117 °C |
| COCc1noc(N2CCC([C@H]3C[C@H]3CCOc3ccc(S(C)(=O)=O)cn3)CC2)n1 | 68 to 70 °C |

| Structure (SMILES) | melting point |
| --- | --- |
| COc1ccc2c(c1)CCN(Cc1cnc(C)nc1N)C2 | 142 to 143 °C |
| COC(=O)C1=C(CBr)Nc2ncnn2C1c1cccs1 (configuration not stated) | 155 °C |
| CNC(=O)c1nn(-c2ccc(Cl)cc2)c(=O)c2c(N)scc12 | 192 to 194 °C |
| Oc1ccccc1CCCC1CCNCC1 | 152 °C |
| CCOc1ccc2c(c1)C(C)(c1cc(C(=O)N3CCN(C)CC3)ccc1Cl)C(=O)N2S(=O)(=O)c1ccc(C(=O)NC(C)(C)C)cc1OC (configuration not stated) | 96 °C |
| COc1cc(-c2nc3ccc(OCC(C)N(C)C)cc3n2Cc2ccccc2C(F)(F)F)cc(OC)c1OC (configuration not stated) | 163 °C |
| CCOc1cc(OCC)nc(-c2nsc3ccc(-n4c(=O)cc(C(F)(F)F)n(C)c4=O)cc23)n1 | 197 to 200 °C |
| CN1C(=O)C(c2ccccc2)(C23CC4CC(CC(C4)C2)C3)N=C1N (configuration not stated) | 250 °C |
| COc1cc(Nc2nc3cccc(-c4ccc(CN)cc4)c3o2)cc(OC)c1OC | 208 to 211 °C |
| COc1ccc(NC(=O)Cc2ccc(Cl)cc2)c(OC)c1 | 134 to 135 °C |
| c1ccc2c(CCN=c3sc4ccccc4s3)c[nH]c2c1 | 149 to 150 °C |
| O=C1N(Cc2csc(-c3ccc(C(F)(F)F)cc3)n2)c2ccccc2C12COc1cc3c(cc12)OCO3 (configuration not stated) | 151 to 153 °C |
| Cc1cc(C#N)c(C)c(C(=O)Nc2ccn(C)n2)n1 | 180 °C |
| O=c1[nH]cnc(C(F)(F)F)c1Br | 226 to 227 °C |
| CNC(=O)c1cncc(NC(=O)N2CCC3(CCc4ccc(F)cc4O3)CC2)c1 | 231 to 233 °C |
| CC1(CCCN2CC[C@H](CNC(=O)c3cc(Cl)c(N)c4c3OCC4)[C@H](O)C2)OCCO1 (relative stereo) | 118 °C |
| O=C(CSc1ccc(O)cc1)NC(=O)c1ccccc1 | 149 to 151 °C |
| CC(C)(C)c1cc(-c2nn(CC(=O)O)c3ncccc23)cc(C(C)(C)C)c1O | 210 to 212 °C |
